Measured values: ChEMBL document CHEMBL1121390, “Rm values and structure-activity relationship of benzodiazepines” (J Med Chem, 1980)

Experiments:
[1] = Partition coefficient (logP); type: physicochemical; settings: octanol/water
Rattus norvegicus [2] = species: Rattus norvegicus; assay: ED50 value was reported as log1/C, which is the concentration required to reduce locomotor activity by 50% in rats; type: functional
Rattus norvegicus [3] = species: Rattus norvegicus; assay: Fourfod increase in lever pressing in punished rats, ED50 value reported as log1/C; type: functional
Rattus norvegicus [4] = species: Rattus norvegicus; assay: Halving of lever pressing in non punished rats, ED50 value reported as log 1/C; type: functional

Structure (SMILES)	logP [1]	Log 1/C (Rattus norvegicus [2])	Log 1/C (Rattus norvegicus [3])	Log 1/C (Rattus norvegicus [4])
O=C1C(O)N=C(c2ccccc2F)c2cc(Cl)ccc2N1CCO (stereo not drawn) [DOXEFAZEPAM]	1.36	2.239	1.648	1.697
O=C1Nc2ccc(Cl)cc2C(c2ccccc2Cl)=NC1O (stereo not drawn) [LORAZEPAM]		3.145	2.444	2.897
O=C1CN=C(c2ccccc2Cl)c2cc(Cl)ccc2N1 [DELORAZEPAM]	2.73	2.79	2.678	2.509
O=C1CN=C(c2ccccc2Cl)c2cc([N+](=O)[O-])ccc2N1 [CLONAZEPAM]	2.41			
CCN(CC)CCN1C(=O)C(O)N=C(c2ccccc2F)c2cc(Cl)ccc21 (stereo not drawn)	1.68			
CC(=O)OC1N=C(c2ccccc2)c2cc(Cl)ccc2N(CCO)C1=O (stereo not drawn)	2.01			
O=C1CN=C(c2ccccc2)c2cc(Cl)ccc2N1 [NORDAZEPAM]		1.247	1.83	0.832
O=C1C(O)N=C(c2ccccc2)c2cc([N+](=O)[O-])ccc2N1CCO (stereo not drawn)	0.72	0.34		
O=C1Nc2ccc(Cl)cc2C(c2ccccc2F)=NC1O (stereo not drawn)	1.48	2.501	2.36	2.045
O=C1C[N+]([O-])=C(c2ccccc2)c2cc(Cl)ccc2N1CCO	0.44	0.346		
COc1cc(C(=O)OC2N=C(c3ccccc3)c3cc(Cl)ccc3NC2=O)cc(OC)c1OC (stereo not drawn)	3.54	0.358		
CN1C(=O)CN=C(c2ccccc2)c2cc(Cl)ccc21 [DIAZEPAM]		1.793	1.876	1.659
CN1C(=O)CN=C(c2ccccc2F)c2cc(Cl)ccc21 [FLUDIAZEPAM]	2.67	2.598	2.721	2.417
CNC1C[N+]([O-])=C(c2ccccc2)c2cc(Cl)ccc2N1 (stereo not drawn)	2.5	1.628	1.578	1.277
O=C1Nc2ccc(Cl)cc2C(c2ccccc2)=NC1O (stereo not drawn) [OXAZEPAM]		1.191	1.192	0.961
CCOC1N=C(c2ccccc2)c2cc(Cl)ccc2N(CCOC(C)=O)C1=O (stereo not drawn)	2.87			
CC(=O)OCCCN1C(=O)C(OC(C)=O)N=C(c2ccccc2)c2cc(Cl)ccc21 (stereo not drawn)	3			
CN1C(=O)C(O)N=C(c2ccccc2F)c2cc(Cl)ccc21 (stereo not drawn) [FLUTEMAZEPAM]	2	2.81	2.585	2.371
O=C1C(O)N=C(c2ccccc2)c2cc(Cl)ccc2N1CCO (stereo not drawn)	1.35	0.797	0.361	0.42
CN1C(=O)CN=C(C2C=CCCC2)c2cc(Cl)ccc21 (stereo not drawn)	2.76			
O=C1C[N+]([O-])=C(c2ccccc2)c2ccccc2N1	1.46			

Structure (SMILES)	logP [1]	Log 1/C (Rattus norvegicus [2])	Log 1/C (Rattus norvegicus [3])	Log 1/C (Rattus norvegicus [4])
CN1C(=O)CN=C(c2ccccc2Cl)c2cc(Cl)ccc21	3.25	2.409	2.824	2.409
CCCC(CCC)C(=O)OC1N=C(c2ccccc2)c2cc(Cl)ccc2NC1=O (stereo not drawn)	5.25	0.503		
CN1C(=O)C(O)N=C(c2ccccc2Cl)c2cc(Cl)ccc21 (stereo not drawn) [LORMETAZEPAM]	2.58	2.594	2.658	2.394
CC(=O)OCCN1C(=O)C(OC(C)=O)N=C(c2ccccc2)c2cc(Cl)ccc21 (stereo not drawn)	2.48			
O=C1CN=C(c2ccccc2F)c2cc(Cl)ccc2N1	2.15	2.046	2.284	1.825
O=C1CN=C(c2ccccc2)c2cc(Cl)ccc2N1CC(F)(F)F [HALAZEPAM]	3.73	1.097		
CCOC1N=C(c2ccccc2)c2cc(Cl)ccc2N(CCO)C1=O (stereo not drawn)	2.4			
O=C1CN=C(c2ccccc2)c2cc(Cl)ccc2N1CC1CC1 [PRAZEPAM]	3.72	0.709		
O=C1C(O)N=C(c2ccccc2Cl)c2cc(Cl)ccc2N1CCO (stereo not drawn)	1.94	2.005	1.959	1.711
O=C1C(O)N=C(c2ccccc2)c2cc(Cl)ccc2N1CCCO (stereo not drawn)	1.87			
CCN(CC)CCN1C(=O)CN=C(c2ccccc2F)c2cc(Cl)ccc21 [FLURAZEPAM]	2.35	1.943	1.745	1.291
CCOC1N=C(c2ccccc2)c2cc(Cl)ccc2N(CCCl)C1=O (stereo not drawn)	3.95	0.193		
O=C(O)CCC(=O)OCCN1C(=O)C[N+]([O-])=C(c2ccccc2)c2cc(Cl)ccc21	0.19	0.762		
CN1CCN=C(c2ccccc2)c2cc(Cl)ccc21 [MEDAZEPAM]	4.05	1.443		
CNC(=O)N1C(=O)CN=C(c2ccccc2)c2cc([N+](=O)[O-])ccc21	1.95			
CCN(CC)CCN1C(=O)C(O)N=C(c2ccccc2Cl)c2cc(Cl)ccc21 (stereo not drawn)	2.26			
CCN(CC)CCN1C(=O)C(O)N=C(c2ccccc2)c2cc(Cl)ccc21 (stereo not drawn)	1.67			
O=C1CN=C(c2ccccc2)c2cc([N+](=O)[O-])ccc2N1 [NITRAZEPAM]	2.12	2.326		
O=C(O)CCC(=O)OC1N=C(c2ccccc2)c2cc(Cl)ccc2NC1=O (stereo not drawn)	1.41	1.381		
CN1C(=O)C(O)N=C(c2ccccc2)c2cc(Cl)ccc21 (stereo not drawn) [TEMAZEPAM]		1.629	1.883	1.228
